Data taken from publication PMC7910394, “Design of PSMA ligands with modifications at the inhibitor part: an approach to reduce the salivary gland uptake of radiolabeled PSMA inhibitors?” (EJNMMI Radiopharmacy and Chemistry, 2021).
Read-outs that look alike come from different tables or passages of the source.

Columns and labels:
[1] = tested on: LNCaP tumor xenograft-bearing CB17-SCID mice; type: in vivo, mouse
Procedure: All animal experiments were conducted in accordance with general animal welfare regulations in Germany (German animal protection act, as amended on 18.05.2018, Art. 141 G v. 29.3.2017 I 626, approval no. 55.2–1-54-2532-71-13) and the institutional guidelines for the care and use of animals. To establish tumor xenografts, LNCaP cells (approx. 10^7 cells) were suspended in 200 μL of a 1/1 mixture (v/v) of DMEM F-12 and Matrigel (BD Biosciences, Heidelberg, Germany) and inoculated subcutaneously onto the right shoulder of 6–8 weeks old CB17-SCID mice (Charles River Laboratories, Sulzfeld, Germany). Mice were used for experiments when tumor size reached 5–10 mm in diameter (3–6 weeks after inoculation).
Approximately 2–10 MBq (0.20 nmol) of the ^177Lu-labeled PSMA inhibitors were injected into the tail vein of LNCaP tumor xenograft-bearing male CB17-SCID mice (n = 3 to 5). They were sacrificed by CO2 asphyxiation and cervical dislocation either 1 h or 24 h post injection (p.i.) (n = 3 for [^177Lu]Lu-5, -6 & -7 (proinhibitor compounds I-III), n = 4 for [^177Lu]Lu-10 (alkyne), n = 5 for [^177Lu]Lu-3 (carbamate I) and n = 5 for [^177Lu]Lu-11 (tetrazole)). Selected organs were removed, weighed and organ activities measured in a γ-counter.
Approximately 2 - 10 MBq (0.20 nmol) of the ^177Lu-labeled PSMA inhibitors were injected into the tail vein of LNCaP tumor xenograft-bearing male CB17-SCID mice (n = 3 to 5). They were sacrificed by CO2 asphyxiation and cervical dislocation either 1 h or 24 h post injection (p.i.) (n = 3 for [^177Lu]Lu-5, -6 & -7 (proinhibitor compounds I-III), n = 4 for [^177Lu]Lu-10 (alkyne) and n = 5 for [^177Lu]Lu-3 (carbamate I) and n = 5 for [^177Lu]Lu-11 (tetrazole)). Selected organs were removed, weighed and organ activities measured in a γ-counter.

[2] = tested on: LNCaP cells; experiment: Internalization study of 177Lu-labeled ligands in LNCaP cells, normalized to ([125I]I-BA)KuE; type: cell-based, human; conditions: 1 h, 37 °C, 1.0 nM 177Lu-compound, normalized to ([125I]I-BA)KuE
Procedure: PSMA-positive LNCaP cells (300265; Cell Lines Service, Eppelheim, Germany) were cultivated in Dulbecco’s modified Eagle medium/Nutrition Mixture F-12 with GlutaMAX (1/1, DMEM-F12, Thermo Fisher Scientific, Darmstadt, Germany) supplemented with 10% fetal bovine serum (Merck KGaA, Darmstadt, Germany) and kept at 37 °C in a humidified 5% CO2 atmosphere. One day (24 ± 2 h) prior to all in vitro experiments, the cultivated LNCaP cells were harvested using a mixture of trypsin/ethylenediamine-tetraacetic acid (0.05%/0.02%) in PBS (Thermo Fisher Scientific, Darmstadt, Germany) and centrifuged at 1300 rpm (ca. 190×g) for 3 min at room temperature (Heraeus Megafuge 16, Thermo Fisher Scientific, Darmstadt, Germany). After centrifugation, the supernatant was disposed and the cell pellet was resuspended in culture medium. Cells were counted with a Neubauer hemocytometer (Paul Marienfeld GmbH & Co. KG, Lauda-Königshofen, Germany) and seeded in 24-well plates.
Detailed information on affinity and internalization experiments is provided in the supporting information. […] IC50 values of (^natI-BA)KuE were determined on the same day for monitoring assay performance and to identify abnormal deviations in uptake and/or affinity. […] Data were corrected for non-specific binding and normalized to the specific internalization observed for the radioiodinated reference compound (n = 3).
The culture medium was removed and the cells were washed with 500 µL of DMEM-F12 containing 5% BSA. Afterwards, 200 µL of DMEM-F12 (5% BSA) were added to each well and left to equilibrate at 37 °C for 15 min. 25 µL of DMEM-F12 (5% BSA) were added to each well, followed by the addition of 25 µL of the respective ^177Lu-labeled ligand (10.0 nM in DMEM-F12 (5% BSA)). For blocking PSMA-specific binding and uptake, 25 µL of 2-(phosphonomethyl)pentane-1,5-dioic acid (2-PMPA) (100 µM in DMEM (5% BSA)) instead of DMEM-F12 (5% BSA) were added prior to radiotracer addition. […] Each experiment (control and blockade) was performed in triplicate. […] Incubation was terminated by placing the plate on ice (4 °C, 1 min) and removal of the incubation medium. The cells were washed with 250 µL of ice-cold PBS and the wash medium was combined with the respective supernatant. This fraction represents the amount of free radioligand. 250 µL of ice-cold 2-PMPA (10 µM in PBS) were added and the cells were incubated for 10 min at 4 °C. Afterwards, the cells were rinsed again with 250 µL of ice-cold PBS and the wash medium was combined with the respective supernatant. This fraction represents the amount of cell surface-bound ligand. In the last step, the cells were lysed by addition of 250 µL of 1 M aqueous NaOH. After 20 min, the lysate of each well was transferred to the respective vial as well as 250 µL of 1 M NaOH used for rinsing the well. This fraction represents the amount of internalized radioligand. Quantification of the amount of free, cell surface-bound and internalized activity was performed in a γ-counter.

Structure (SMILES): CC(C)(C)[Si](F)(c1ccc(C(=O)NC[C@@H](NC(=O)CN2CCN(CC(=O)[O-])CCN(CC(=O)[O-])CCN(CC(=O)[O-])CC2)C(=O)N[C@H](CCCCNC(=O)CCC(=O)NCCC[C@@H](NC(=O)CC[C@H](NC(=O)N[C@@H](CCc2nnn[nH]2)C(=O)O)C(=O)O)C(=O)O)C(=O)O)cc1)C(C)(C)C.[Lu+3] [^natLu/[^177Lu]Lu-11]
- Biodistribution Adrenals ([1]; 1 h p.i.): 0.61 ± 0.42 % ID/g
- Biodistribution Blood ([1]; 1 h p.i.): 1.09 ± 0.30 % ID/g
- Biodistribution Bone ([1]; 1 h p.i.): 0.47 ± 0.44 % ID/g
- Biodistribution Heart ([1]; 1 h p.i.): 0.41 ± 0.04 % ID/g
- Biodistribution Intestine ([1]; 1 h p.i.): 0.67 ± 0.21 % ID/g
- Biodistribution Kidneys ([1]; 1 h p.i.): 33.2 ± 3.8 % ID/g
- Biodistribution Liver ([1]; 1 h p.i.): 0.74 ± 0.17 % ID/g
- Biodistribution Lung ([1]; 1 h p.i.): 1.23 ± 0.27 % ID/g
- Biodistribution Muscle ([1]; 1 h p.i.): 0.15 ± 0.03 % ID/g
- Biodistribution Pancreas ([1]; 1 h p.i.): 0.33 ± 0.11 % ID/g
- Biodistribution Parotid gland ([1]; 1 h p.i.): 0.56 ± 0.08 % ID/g
- Biodistribution Spleen ([1]; 1 h p.i.): 1.04 ± 0.15 % ID/g
- Biodistribution Stomach ([1]; 1 h p.i.): 1.55 ± 1.67 % ID/g
- Biodistribution Submandibular gland ([1]; 1 h p.i.): 0.40 ± 0.05 % ID/g
- Biodistribution Tumor ([1]; 1 h p.i.): 3.40 ± 0.63 % ID/g
- Ratio Tumor-to-blood ([1]; 1 h p.i.): 3.46 ± 1.62
- Ratio Tumor-to-kidney ([1]; 1 h p.i.): 0.10 ± 0.03
- Ratio Tumor-to-liver ([1]; 1 h p.i.): 5.00 ± 2.11
- Ratio Tumor-to-muscle ([1]; 1 h p.i.): 24.9 ± 10.2
- Ratio Tumor-to-parotid gland ([1]; 1 h p.i.): 6.20 ± 1.74
- Ratio Tumor-to-submandibular gland ([1]; 1 h p.i.): 8.74 ± 2.52
- Biodistribution Adrenals ([1]; 24 h p.i.): 0.17 ± 0.19 % ID/g
- Biodistribution Bone ([1]; 24 h p.i.): 0.18 ± 0.04 % ID/g
- Biodistribution Heart ([1]; 24 h p.i.): 0.02 ± 0.00 % ID/g
- Biodistribution Intestine ([1]; 24 h p.i.): 0.52 ± 0.68 % ID/g
- Biodistribution Kidneys ([1]; 24 h p.i.): 3.23 ± 0.77 % ID/g
- Biodistribution Liver ([1]; 24 h p.i.): 0.18 ± 0.04 % ID/g
- Biodistribution Lung ([1]; 24 h p.i.): 0.05 ± 0.02 % ID/g
- Biodistribution Muscle ([1]; 24 h p.i.): 0.02 ± 0.01 % ID/g
- Biodistribution Pancreas ([1]; 24 h p.i.): 0.02 ± 0.00 % ID/g
- Biodistribution Parotid gland ([1]; 24 h p.i.): 0.06 ± 0.02 % ID/g
- Biodistribution Spleen ([1]; 24 h p.i.): 0.11 ± 0.03 % ID/g
- Biodistribution Stomach ([1]; 24 h p.i.): 0.12 ± 0.11 % ID/g
- Biodistribution Submandibular gland ([1]; 24 h p.i.): 0.04 ± 0.01 % ID/g
- Biodistribution Tumor ([1]; 24 h p.i.): 0.68 ± 0.16 % ID/g
- Ratio Tumor-to-blood ([1]; 24 h p.i.): 227 ± 50
- Ratio Tumor-to-kidney ([1]; 24 h p.i.): 0.22 ± 0.06
- Ratio Tumor-to-liver ([1]; 24 h p.i.): 3.74 ± 0.50
- Ratio Tumor-to-muscle ([1]; 24 h p.i.): 55.9 ± 24.3
- Ratio Tumor-to-parotid gland ([1]; 24 h p.i.): 12.2 ± 1.7
- Ratio Tumor-to-submandibular gland ([1]; 24 h p.i.): 16.9 ± 2.2
- factor by which tumor-to-submandibular gland and tumor-to-parotid gland ratios are lower than for [177Lu]Lu-1 ([1]; 24 h p.i.): 8
- %Internalization compared to the reference [2]: 1 h: 9.9 ± 3.2%
- %Internalization compared to the reference ([2]; listed as [^177Lu]Lu-11): 9.9 ± 3.2%
